Source: US9458192B1, “Covalent granzyme B inhibitors” (viDA Therapeutics Inc., priority 2014, dated 2016)

Biological target: GzmB (Homo sapiens, UniProt P10144)
Assay: Inhibition of fibronectin cleavage by GzmB
Format: biochemical
Conditions: 20 nM granzyme B, Hilyte Fluor 488 labeled fibronectin, 30° C.
Experimental: Black, 96 well high-binding assay plates (Griener Bio-one) were treated overnight at 4° C. with 40 uL of 8 ug/mL Hilyte Fluor 488 labeled Fibronectin (Cytoskeleton, Inc). After fibronectin coating, plates were washed 3 times in buffer (20 mM Tris-HCl, pH 7.4, 20 mM NaCl) then once with granzyme B assay buffer (50 mM HEPES, pH 7.5, 0.1% CHAPS). After washing, 50 uL of granzyme B assay buffer was added to each fibronectin-coated well. In a separate non-binding 96 well assay plate 5 uL of 20× inhibitor serial dilution stocks were added to 45 uL of 2.22×GzmB mix to establish inhibition (enzyme/inhibitor mixes were all prepared in granzyme B assay buffer and were incubated first at room temperature for 20 minutes, then at 30° C. for another 10 minutes). After incubation, 50 uL of this 2× enzyme/inhibitor mix was added to the corresponding coated well to initiate fibronectin cleavage (20 nM final granzyme B concentration, 8-point inhibitor dilution series starting at 50 uM). The assay was conducted at 30° C. in the TECAN plate reader (TECAN INFINITE® M1000 Pro), which was programmed to monitor the kinetic fluorescence polarization signal (filter set Ex/Em 470 nm/527 nm) with readings taken every minute, for 1 hour. Proteolytic activity was evaluated as the rate of fluorescence enhancement in the parallel emission over the linear range of the reaction. % Inhibition values were calculated from assay controls and the resulting date is shown in Table 2.

GzmB, sequence (P10144 21-247): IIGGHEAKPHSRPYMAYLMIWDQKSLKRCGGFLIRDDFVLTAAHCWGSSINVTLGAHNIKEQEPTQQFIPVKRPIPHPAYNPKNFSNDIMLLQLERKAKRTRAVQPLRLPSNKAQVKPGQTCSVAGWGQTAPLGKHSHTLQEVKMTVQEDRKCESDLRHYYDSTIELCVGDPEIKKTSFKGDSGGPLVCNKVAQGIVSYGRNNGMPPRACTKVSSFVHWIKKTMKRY

For CC[C@H](C)[C@H](NC(=O)CCC(=O)O)C(=O)NCC(=O)N1c2ccccc2C[C@H]1C(=O)NC(C=O)CC(=O)O (stereo in doubt) [Compound C1, (S)-3-{[1-{2-[(2S,3S)-2-(3-carboxypropanamido)-3-methylpentanamido]acetyl}-2,3-dihydro-1H-indol-2-yl]formamido}-4-oxobutanoic acid], the inhibition at 0.62 µM (0.62 uM inhibitor, read-out: Percent Inhibition at Inhibitor Concentration 0.62 uM) was 60%, the inhibition at 5.56 µM (5.56 uM inhibitor, read-out: Percent Inhibition at Inhibitor Concentration 5.56 uM) was 87% and the inhibition at 50 µM (50 uM inhibitor, read-out: Percent Inhibition at Inhibitor Concentration 50 uM) was 95%.
